Read-outs that look alike come from different tables or passages of the source.
Columns and labels:
CK1δ = CK1δ (Homo sapiens (Human), UniProt P48730); assay: LanthaScreen Eu kinase binding assay, CK1δ
CK1ϵ = CK1ϵ (Homo sapiens (Human), UniProt P49674); assay: LanthaScreen Eu kinase binding assay, CK1ϵ
p38α MAPK = p38α MAPK (Homo sapiens (Human), UniProt Q16539); assay: HitHunter p38 MAP kinase binding assay; conditions: read-out: p38α MAPK IC50 ± SEM
hESC3 Nkx2.5eGFP/w cells = assay: Differentiation in 96-U bottom ultra-low attachment well plates, GFP area imaging; type: cell-based, human; conditions: 5 μM; for Average GFP %: after CHIR99021, read on day 14, GFP area over embryoid body size; for Average GFP μm^2 / Average Area μm^2: day 14; for Average Area μm^2: embryoid body size

Chain of CK1δ (P48730 whole entry): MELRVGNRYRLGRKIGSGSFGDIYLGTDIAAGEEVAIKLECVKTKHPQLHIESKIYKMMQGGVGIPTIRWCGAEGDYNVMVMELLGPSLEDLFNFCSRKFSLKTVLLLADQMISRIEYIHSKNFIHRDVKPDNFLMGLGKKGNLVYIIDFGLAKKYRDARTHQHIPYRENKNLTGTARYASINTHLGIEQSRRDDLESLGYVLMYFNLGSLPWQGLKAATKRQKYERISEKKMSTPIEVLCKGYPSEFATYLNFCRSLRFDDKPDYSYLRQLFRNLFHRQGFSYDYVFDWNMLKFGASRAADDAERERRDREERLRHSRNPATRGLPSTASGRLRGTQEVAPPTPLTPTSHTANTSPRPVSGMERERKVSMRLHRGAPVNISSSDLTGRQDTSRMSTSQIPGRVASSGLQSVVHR
Chain of p38α MAPK (Q16539 whole entry, looked up): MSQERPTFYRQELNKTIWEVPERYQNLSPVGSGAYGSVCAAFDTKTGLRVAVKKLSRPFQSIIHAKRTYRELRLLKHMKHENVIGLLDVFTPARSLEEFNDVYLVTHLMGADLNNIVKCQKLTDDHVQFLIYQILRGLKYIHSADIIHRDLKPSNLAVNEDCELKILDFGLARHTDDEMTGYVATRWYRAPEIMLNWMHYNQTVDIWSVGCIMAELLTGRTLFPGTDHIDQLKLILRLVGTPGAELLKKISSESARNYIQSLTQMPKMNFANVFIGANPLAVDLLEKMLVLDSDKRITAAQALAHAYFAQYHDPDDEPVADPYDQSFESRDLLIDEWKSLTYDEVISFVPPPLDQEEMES
Chain of CK1ϵ (P49674 whole entry): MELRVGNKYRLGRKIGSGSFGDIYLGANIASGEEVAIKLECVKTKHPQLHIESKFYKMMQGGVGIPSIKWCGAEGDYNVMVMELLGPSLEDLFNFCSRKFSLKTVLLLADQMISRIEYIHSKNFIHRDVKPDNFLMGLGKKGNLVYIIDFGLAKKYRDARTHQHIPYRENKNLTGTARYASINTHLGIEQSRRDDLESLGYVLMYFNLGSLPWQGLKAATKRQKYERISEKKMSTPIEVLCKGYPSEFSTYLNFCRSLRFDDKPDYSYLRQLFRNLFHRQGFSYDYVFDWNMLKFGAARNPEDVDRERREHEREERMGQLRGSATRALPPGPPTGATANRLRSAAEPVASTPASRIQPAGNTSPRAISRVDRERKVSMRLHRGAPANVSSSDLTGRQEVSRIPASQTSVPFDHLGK

Compound	IC50 (p38α MAPK)	Average GFP % (hESC3 Nkx2.5eGFP/w cells; Induction Day 2)	Average GFP μm^2 (hESC3 Nkx2.5eGFP/w cells; Induction Day 2)	Average Area μm^2 (hESC3 Nkx2.5eGFP/w cells; Induction Day 2)	Average GFP % (hESC3 Nkx2.5eGFP/w cells; Induction Day 3)	Average GFP μm^2 (hESC3 Nkx2.5eGFP/w cells; Induction Day 3)	Average Area μm^2 (hESC3 Nkx2.5eGFP/w cells; Induction Day 3)	other results
Cc1cccc(-c2nc(-c3ccc4ccccc4c3)[nH]c2-c2ccncc2)c1 [IM-01, 4-(2-(naphthalen-2-yl)-4(5)-(m-tolyl)-1H-imidazol-5(4)-yl)pyridine]	98 ± 11 nM							inhibition at 1 µM (CK1δ): 5%; inhibition at 1 µM (CK1ϵ): 6%
Fc1c(-c2nc(-c3cccc(C(F)(F)F)c3)c(-c3ccncc3)[nH]2)ccc2ccccc12 [IM-02, 4-(2-(1-fluoronaphthalen-2-yl)-4(5)-(3-(trifluoromethyl)phenyl)-1H-imidazol-5(4)-yl)pyridine]	2660 ± 466 nM							CK1δ inhibition at 1 μM (CK1δ): No inhibition at 1 μM; CK1ϵ inhibition at 1 μM (CK1ϵ): No inhibition at 1 μM
Cc1cccc(-c2nc(-c3ccc4ccccc4c3F)[nH]c2C2=CCOCC2)c1 [IM-03, 5(4)-(3,6-dihydro-2H-pyran-4-yl)-2-(1-fluoronaphthalen-2-yl)-4(5)-(m-tolyl)-1H-imidazole]	262 ± 73 nM							CK1δ inhibition at 1 μM (CK1δ): No inhibition at 1 μM; CK1ϵ inhibition at 1 μM (CK1ϵ): No inhibition at 1 μM
Cc1cccc(-c2nc(-c3ccc4ccccc4c3F)[nH]c2-c2ccncc2)c1 [IM-04]	20 ± 7 nM							IC50 (CK1δ; Table 3, read-out: IC50 CK1δ): 490 nM; IC50 (CK1δ; read-out: CK1δ IC50 ± SEM): 490 ± 66 nM; IC50 (CK1ϵ; Table 3, read-out: IC50 Ck1ε): 277 nM; IC50 (CK1ϵ; read-out: CK1ϵ IC50 ± SEM): 277 ± 40 nM
Cc1cccc(-c2nc(-c3ccccc3F)[nH]c2C2=CCOCC2)c1 [IM-06, 5(4)-(3,6-dihydro-2H-pyran-4-yl)-2-(2-fluorophenyl)-4(5)-(m-tolyl)-1H-imidazole]	90 ± 20 nM							inhibition at 1 µM (CK1δ): 3%; CK1ϵ inhibition at 1 μM (CK1ϵ): No inhibition at 1 μM
O=C(Nc1cccc2cccnc12)c1ccc(N2C(=O)[C@@H]3[C@H](C2=O)[C@@H]2C=C[C@H]3C2)cc1 [IWR-1, reference compound]		41.3%	308.9 μm^2	763.0 μm^2	51.1%	426.3 μm^2	831.4 μm^2	
CCc1nc(-c2cccc(C)c2)c(-c2ccnc(NC(=O)c3ccccc3)c2)s1 [TAK 715, reference compound]								IC50 (CK1ϵ; Table 3, read-out: IC50 Ck1ε): 107 nM
Fc1ccc(-c2nc(-c3ccccc3)[nH]c2-c2ccncc2)cc1 [ZQX-14, 4-[4(5)-(4-fluorophenyl)-2-phenyl-1H-imidazol-5(4)-yl]pyridine]		42.4%	335.6 μm^2	810.7 μm^2	5.9%	91.6 μm^2	1474.4 μm^2	
Fc1ccc(-c2nc(-c3c(Cl)cccc3Cl)[nH]c2-c2ccncc2)cc1 [ZQX-15, 4-[2-(2,6-dichlorophenyl)-4(5)-(4-fluorophenyl)-1H-imidazol-5(4)-yl]pyridine]		0.0%	0.0 μm^2	129.4 μm^2	0.0%	0.0 μm^2	384.0 μm^2	
COc1ccccc1-c1nc(-c2ccc(F)cc2)c(-c2ccncc2)[nH]1 [ZQX-16, 4-[2-(2-methoxyphenyl)-4(5)-(4-fluorophenyl)-1H-imidazol-5(4)-yl]pyridine]		32.8%	184.7 μm^2	576.1 μm^2	14.5%	125.6 μm^2	950.3 μm^2	
Fc1ccc(-c2nc(-c3ccccc3Cl)[nH]c2-c2ccncc2)cc1 [ZQX-17, 4-[2-(2-chlorophenyl)-4(5)-(4-fluorophenyl)-1H-imidazol-5(4)-yl]pyridine]		30.4%	183.0 μm^2	586.7 μm^2	24.6%	232.7 μm^2	971.6 μm^2	
COc1cccc(OC)c1-c1nc(-c2ccc(F)cc2)c(-c2ccncc2)[nH]1 [ZQX-18, 4-[2-(2,6-dimethoxyphenyl)-4(5)-(4-fluorophenyl)-1H-imidazol-5(4)-yl]pyridine]		27.5%	207.3 μm^2	579.4 μm^2	15.4%	143.4 μm^2	1065.1 μm^2	

From patent US10865384B2, “2,4,5-tri-substituted azole-based casein kinase 1 inhibitors as inducers for cardiomyogenesis” (AGENCY FOR SCIENCE, TECHNOLOGY AND RESEARCH, priority 2014, dated 2020)
